≈ marks a conversion by molar mass, not a printed value.
How the values were obtained:
Assay type in all cases: functional
[1] = test system: Mycobacterium tuberculosis; test: Compound was tested in vitro for growth inhibition activity against Mycobacterium tuberculosis H37Rv in Bactec 12B media.
Escherichia coli = test: Compound was tested in vitro for growth inhibition activity against Escherichia coli
[2] = test system: Mycobacterium tuberculosis; test: Compound was tested in vitro for growth inhibition activity against Mycobacterium tuberculosis H37Rv in Bactec 6A media.

SMILES | MIC [1] [µM] | MIC (Escherichia coli) [µM] | MIC [2] [µM]
Cc1ccc(S(=O)(=O)N2N=Cc3ccccc3B2O)cc1 | 320 (≈ 96 µg/mL) | 83 (≈ 24.9 µg/mL) | 40 (≈ 12 µg/mL)
O=C1Nc2ccccc2B(O)N1c1ccccc1 | 67.2 (≈ 16 µg/mL) |  | 33.6 (≈ 8 µg/mL)
NCCOB(c1ccccc1)c1ccccc1 | 285 (≈ 64.2 µg/mL) |  | 71 (≈ 16 µg/mL)
OB1N=C(c2cnccn2)Nc2ccccc21 | > 572 |  | > 572
CCCCN1B(O)c2ccccc2NC1=O | > 587 |  | > 587
OB1c2ccccc2N=C(S)N1c1cccnc1 | 63 (≈ 16.1 µg/mL) |  | 31.4 (≈ 8.01 µg/mL)
NNC(=O)c1ccncc1 [ISONIAZID] | < 0.16 |  | < 0.02
NC(=O)c1cnccn1 [PYRAZINAMIDE] | > 1600 |  | 1600 (≈ 197 µg/mL)

Reference: ChEMBL document CHEMBL1130782, “Syntheses and evaluation of benzodiazaborine compounds against M. tuberculosis H37Rv in vitro” (1998)
